Experimental data from US4020076A, “Novel phosphoryloxy-thiazoles” (priority 1974, dated 1977).
Read-outs that look alike come from different tables or passages of the source.

Legend:
[1] = test system: Sitophilus granarius; test: Topical application test against Sitophilus granarius; format: in vivo; details: read-out: percent mortality
Protocol: c. Test against Sitophilus granarius
This topical application test comprised preparing the test compounds in acetone solution at concentrations of 5000, 500 and 50 mg of the active compound per liter and 0.2 μl of the solutions were applied to the ventral thorax of 50 Sitophilus granarius for each concentration.

[2] = test system: Spodoptera littoralis; test: Ingestion test against Spodoptera littoralis caterpillars; format: in vivo; details: po, ingestion, read-out: percent of mortality
Protocol: e. Activity against Spodoptera littoralis
This test was effected with Spodoptera littoralis caterpillars 1 to 1.5 cm long and an average of 10 days old. In this ingestion test, 4 ml of an acetone solution of the test products was placed on lettuce rings with an 8 mm diameter which were placed in closed plastic dishes with a 5 cm diameter. 15 caterpillars were placed in each dish and were held at 20° C and 50% relative humidity and were fed when the insects had eaten the treated lettuce ring.

CCOc1nc(OP(=S)(OC)OC)c(C#N)s1 [Compound C, 2-ethoxy-4-dimethoxythiophosphoryloxy-5-cyano-thiazole]
0%: mortality at 50 ppm ([1]; 4 H) | mortality at 500 ppm ([1]; 4 H) | mortality at 50 ppm ([1]; 24 H) | mortality at 50 ppm ([1]; 120 h, 5 Days) | mortality at 125 ppm ([2]; 1 H) | mortality at 250 ppm ([2]; 1 H) | mortality at 500 ppm ([2]; 1 H)
80%: mortality at 250 ppm ([2]; 24 H) | mortality at 250 ppm ([2]; 48 H)
100%: mortality at 5000 ppm ([1]; 4 H) | mortality at 5000 ppm ([1]; 24 H) | mortality at 5000 ppm ([1]; 120 h, 5 Days) | mortality at 500 ppm ([2]; 24 H) | mortality at 500 ppm ([2]; 48 H)
96%: mortality at 500 ppm ([1]; 120 h, 5 Days)
70%: mortality at 125 ppm ([2]; 24 H) | mortality at 125 ppm ([2]; 48 H)
54%: mortality at 500 ppm ([1]; 24 H)
